Test results from a compilation of properties of binary mixtures (doi:10.1016/j.molliq.2022.120052).

Test: xn = mol fraction of the nth substance listed
Details: 100 kPa

C[n+]1ccn(CCCC#N)c1.O=S(=O)([O-])C(F)(F)F + O=C1CCCO1
electrical conductivity [S/m]
Details	x1 = 0.1003	x1 = 0.2001	x1 = 0.3003	x1 = 0.3999	x1 = 0.4999	x1 = 0.6002	x1 = 0.7001	x1 = 0.8002	x1 = 0.9004	x1 = 1
288.15 K	0.725	0.798	–	0.353	0.261	–	0.118	0.084	0.05	–
293.15 K	0.834	0.906	0.623	0.434	0.318	0.232	0.156	0.11	–	0.034
298.15 K	0.95	1.02	0.726	0.521	0.385	0.283	0.201	0.142	–	0.048
303.15 K	1.07	1.14	0.835	0.617	–	0.341	0.252	–	–	0.064
308.15 K	1.2	1.26	0.951	0.718	0.539	–	0.309	0.221	0.153	–
313.15 K	1.33	1.4	–	0.83	0.625	–	–	0.269	0.19	0.106
318.15 K	1.48	1.53	1.21	0.947	0.721	0.554	0.441	–	–	–
323.15 K	1.61	1.68	–	1.07	0.821	0.642	0.513	–	–	–
328.15 K	1.76	1.83	1.49	1.2	0.927	0.733	0.592	0.449	0.333	0.205
333.15 K	1.91	1.98	1.64	–	1.04	0.832	0.675	0.52	0.392	0.25
338.15 K	2.07	2.14	–	1.46	1.17	0.945	0.761	0.596	0.454	–
343.15 K	2.22	2.3	1.95	1.6	1.29	1.05	–	0.677	0.519	0.355
